Experimental data taken from patent publication US8097759B2, “Inflammatory cytokine release inhibitor” (Institute of Medicinal Molecular Design, Inc., priority 2000, dated 2012).
Read-outs that look alike come from different tables or passages of the source.

Tested on: NF-κB activation
Test: NF-κB activation reporter assay (pNFκB-Luc luciferase) under TNF-α stimulation
Format: cell-based, human
Conditions: for inhibition at 1 µg/mL / inhibition at 10 µg/mL: Homo sapiens, read-out: The rate of inhibitory activity against NF-κB activation (%)
Method: Using a transfection reagent (Effectene; QIAGEN), the human hepatoma cell strain HepG2 or the human hysterocarcinoma cell strain HeLa was transfected with the firefly luciferase gene (Luc) contained plasmid (pNF κB-Luc Reporter Plasmid; […]) which contained oligonucleotide having five tandem copies of NF-κB binding sequences ([…]) on a upstream region of Luc, according to the QUAGEN's protocol and it was incuvated for 6-24 hours. After addition of TNF-α (40 ng/ml) with or without the test compound, the cells were incuvated for 4 hours, and intracellular luciferase activity was measured with PicaGene LT (TOYO INK MFG Co., Ltd.) and chemical luminescence measurement device ([…]luor Plus; TECAN). The inhibition ratio was measured as a ratio to the value of the luciferase activity without the test compound.

[1] = Concentration of the agent: 1 μg/mL, HepG2 or HeLa cells, TNF-α 40 ng/ml, 4 hours
[2] = Concentration of the agent: 10 μg/mL, HepG2 or HeLa cells, TNF-α 40 ng/ml, 4 hours

| Compound | inhibition at 1 µg/mL [1] | inhibition at 10 µg/mL [2] | other results |
| --- | --- | --- | --- |
| 5-Bromo-2-hydroxy-N-(2-phenethyl)benzamide [Compound 2] | – | – | The rate of inhibitory activity against NF-κB activation (%) [1]: 18.6%; The rate of inhibitory activity against NF-κB activation (%) [2]: 83.2% |
| 5-Bromo-N-(3,5-dichloro)phenyl-2-hydroxybenzenesulfonamide [Compound 10] | – | – | The rate of inhibitory activity against NF-κB activation (%) [1]: 7.1%; The rate of inhibitory activity against NF-κB activation (%) [2]: 78.6% |
| O=C(NCc1cc(C(F)(F)F)cc(C(F)(F)F)c1)c1cc(Br)ccc1O [Compound 1, N-{[3,5-bis(trifluoromethyl)phenyl]methyl}-5-bromo-2-hydroxybenzamide] | -33.6% | 54.4% | – |
| O=C(NC1Cc2ccc(C(=O)N3CCOCC3)cc2C1)c1cc(Br)ccc1O (stereo not shown) [Compound 3, 5-Bromo-2-hydroxy-N-[5-(morpholinocarbonyl)indan-2-yl]benzamide] | 54.2% | 68.4% | – |
| O=C(CC(c1ccc(O)cc1)c1ccc(Cl)cc1)c1c(O)cccc1O (stereo not shown) [Compound 4, 3-(4-Chlorophenyl)-1-(2,6-dihydroxyphenyl)-3-(4-hydroxyphenyl)propan-1-one] | 42.9% | 94.1% | – |
| COc1ccc(CCC(=O)c2cc(Cl)ccc2O)cc1 [Compound 5, 1-(5-Chloro-2-hydroxyphenyl)-3-(4-methoxyphenyl)propan-1-one] | 33.3% | 98% | – |
| COc1ccc(C(=O)C=Cc2ccccc2OC)c(O)c1 [Compound 6, 1-(2-Hydroxy-4-methoxyphenyl)-3-(2-methoxyphenyl)propen-1-one] | 27.8% | 61.9% | – |
| Cc1ccc(O)c(C(=O)C=Cc2ccc3c(c2)OCCCO3)c1 [Compound 7, 3-(3,4-Dihydro-2H-benzo[b][1,4]dioxepin-7-yl)-1-(2-hydroxy-5-methylphenyl)propen-1-one] | 30.4% | 68.7% | – |
| COCc1ccc(C(=O)C=Cc2ccc3c(c2)OCCCO3)c(O)c1 [Compound 8, 3-(3,4-Dihydro-2H benzo[b][1,4]dioxepin-7-yl)-1-[2-hydroxy-4-(methoxylmethyl)phenyl]propen-1-one] | 35.3% | 59.9% | – |
| C=C(c1ccc(Cl)cc1)c1cc(Cl)ccc1O [Compound 9, 4-Chloro-2-[(4-chlorophenyl)ethen-2-yl]phenol] | 21.9% | 99.2% | – |
| O=C(Nc1ccccc1O)c1cc(C(F)(F)F)cc(C(F)(F)F)c1 [Compound 11, 3,5-Bis(trifluoromethyl)-N-(2-hydroxyphenyl)benzamide] | 28.4% | 44.1% | – |
| O=C(Nc1cc(Cl)ccc1O)c1cc(Cl)cc(Cl)c1 [Compound 12, N-(5-Chloro-2-hydroxyphenyl)-3,5-dichlorobenzamide] | 68.6% | 87.3% | – |
| O=S(=O)(Nc1cc(Cl)ccc1O)c1cc(Cl)cc(Cl)c1 [Compound 13, N-(5-Chloro-2-hydroxyphenyl)-3,5-dichlorobenesulfonamide] | – | – | The rate of inhibitory activity against NF-κB activation (%) [1]: −7.1%; The rate of inhibitory activity against NF-κB activation (%) [2]: 63.8% |
| Oc1ccc(Br)cc1CNc1cc(Cl)cc(Cl)c1 [Compound 14, N-[(5-Bromo-2-hydroxyphenyl)methyl]-3,5-dichloroaniline] | 21.7% | 98.9% | – |
| O=C(NN=Cc1ccc(O)cc1O)c1cc(Cl)ccc1O [Compound 15, 5-Chloro-2-hydroxybenzoic acid (2,4-dihydroxybenzylidene)hydrazide] | 15.2% | 70.4% | – |
| CN(C(=O)c1cc(Cl)ccc1O)c1cc(C(F)(F)F)cc(C(F)(F)F)c1 [Compound 16, N-[3,5-Bis(trifluoromethyl)phenyl]-5-chloro-2-hydroxy-N-methylbenzamide] | 36.4% | 91.6% | – |
| O=C(c1cc(Br)ccc1O)N1CCCc2ccc(C(F)(F)F)cc21 [Compound 17, 1-(5-Bromo-2-hydroxy)benzoyl-7-(trifluoromethyl)-1,2,3,4-tetrahydroquinoline] | – | – | The rate of inhibitory activity against NF-κB activation (%) [1]: 19.9%; The rate of inhibitory activity against NF-κB activation (%) [2]: 96.5% |
| O=C(Nc1cc(Cl)cc(Cl)c1)c1c(O)ccc2ccccc12 [Compound 18, N-(3,5-Dichlorophenyl)-2-hydroxy-1-naphthamide] | 85.3% | 90.2% | – |
| O=C(Nc1cc(Cl)cc(Cl)c1)c1cc2ccccc2cc1O [Compound 19, N-(3,5-Dichlorophenyl)-3-hydroxy-2-naphthamide] | -55.4% | 95.1% | – |

| Compound | inhibition at 1 µg/mL [1] | inhibition at 10 µg/mL [2] | other results |
| --- | --- | --- | --- |
| COc1cc(NC(=O)c2cc3ccccc3cc2O)cc(OC)c1 [Compound 20, N-(3,5-Dimethoxyphenyl)-3-hydroxy-2-naphthamide] | -12.1% | 86.8% | – |
| O=C(Nc1cc(C(F)(F)F)cc(C(F)(F)F)c1)c1ccc2ccccc2c1O [Compound 21, N-[3,5-Bis(trifluoromethyl)phenyl]-1-hydroxy-2-naphthamide] | 89.6% | 95% | – |
| O=C(Nc1ccc(S(=O)(=O)F)cc1)c1ccc2ccccc2c1O [Compound 22, {[(1-Hydroxynaphthalen-2-yl)carbonyl]amino}benzenesulfonyl fluoride] | – | – | The rate of inhibitory activity against NF-κB activation (%) [1]: 37.0%; The rate of inhibitory activity against NF-κB activation (%) [2]: 92.9% |
| O=C(Nc1ccc(S(=O)(=O)F)cc1)c1cc(N=Nc2cc(Cl)ccc2Cl)c2ccccc2c1O [Compound 23, 4-({[4-(2,5-Dichlorophenyl)azo-1-hydroxynaphthalen-2-yl]-carbonyl}amino)benzenesulfonyl fluoride] | – | – | inhibition at 1 µg/mL (4 h): 75.7%; inhibition at 10 µg/mL (4 h): 96.6% |
| O=C(Nc1cc(C(F)(F)F)cc(C(F)(F)F)c1)c1cc(Cl)cnc1O [Compound 24, N-[3,5-Bis(trifluoromethyl)phenyl]-5-chloro-2-hydroxypyridine-3-carboxamide] | 58.1% | 82.2% | – |
| O=C(Nc1cc(C(F)(F)F)ccc1Cl)c1cc(Cl)cnc1O [Compound 25, N-[2-Chloro-5-(trifluoromethyl)phenyl]-5-chloro-2-hydroxynicotinamide] | 85.4% | 86.9% | – |
| O=C(Nc1cc(C(F)(F)F)cc(C(F)(F)F)c1)c1ncccc1O [Compound 27, N-[3,5-Bis(trifluoromethyl)phenyl]-3-hydroxypyridine-2-carboxamide] | 68.5% | 47.3% | – |
| O=C(Nc1cc(C(F)(F)F)cc(C(F)(F)F)c1)c1c(O)[nH]c2cc(Cl)ccc12 [Compound 28, N-[3,5-Bis(trifluoromethyl)phenyl]-6-chloro-2-hydroxyindole-3-carboxamide] | 16.3% | 41.7% | – |
| O=C(Nc1cc(C(F)(F)F)cc(C(F)(F)F)c1)c1nc2ccccc2nc1O [Compound 29, N-[3,5-Bis(trifluoromethyl)phenyl]-3-hydroxyquinoxaline-2-carboxamide] | 46.3% | 73% | – |
| O=C(Nc1ccc(Cl)cc1)c1cc2c(cc1O)[nH]c1ccccc12 [Compound 30, N-(4-Chlorophenyl)-2-hydroxy-9H-carbazole-3-carboxamide] | 76.5% | 98.1% | – |
| O=C(Nc1cccc2ccccc12)c1ccccc1O [Compound 31, 2-Hydroxy-N-(1-naphthyl)benzamide] | 13.3% | 93.2% | – |
| O=C(Nc1cccc2ccccc12)c1cc(Cl)ccc1O [Compound 32, 5-Chloro-2-hydroxy-N-(1-naphthyl)benzamide] | 89.3% | 96.3% | – |
| COc1cc(NC(=O)c2cc(Cl)ccc2O)cc2ccccc12 [Compound 33, 5-Chloro-2-hydroxy-N-(4-methoxynaphthalen-2-yl)benzamide] | 95.1% | 99.5% | – |
| COc1cc(NC(=O)c2cc(Cl)ccc2OC(C)=O)cc2ccccc12 [Compound 34, 2-Acetoxy-5-Chloro-N-(4-methoxynaphthalen-2-yl)benzamide] | 90.5% | 98.5% | – |
| CCOC(=O)c1c(NC(=O)c2cc(Cl)ccc2O)sc2c1CCCC2 [Compound 35, 2-(5-Chloro-2-hydroxybenzoyl)amino-4,5,6,7-tetrahydrobenzo[b]-thiophene-3-carboxylic acid ethyl ester] | 88.2% | 85.4% | – |
| O=C(Nc1cc(-c2ccccc2)[nH]n1)c1cc(Br)ccc1O [Compound 36, 5-Bromo-2-hydroxy-N-(5-phenylpyrazol-3-yl)benzamide] | 26.6% | 84.7% | – |
| O=C(Nc1nc(-c2ccccc2)c(-c2ccccc2)o1)c1cc(Br)ccc1O [Compound 38, 5-Bromo-N-(4,5-diphenyloxazol-2-yl)-2-hydroxybenzamide] | -10.1% | 81.8% | – |
| O=C(Nc1nnc(C(F)(F)F)s1)c1ccccc1O [Compound 40, 2-Hydroxy-N-5-[(trifluoromethyl)-1,3,4-thiadiazol-2-yl]benzamide] | – | – | The rate of inhibitory activity against NF-κB activation (%) [1]: 3.9%; The rate of inhibitory activity against NF-κB activation (%) [2]: 81.9% |
| O=C(Nc1nnc(C(F)(F)F)s1)c1cc(Br)ccc1O [Compound 41] | – | – | The rate of inhibitory activity against NF-κB activation (%) [1]: 26.1%; The rate of inhibitory activity against NF-κB activation (%) [2]: 90.3% |
